Source: patent publication US10123996B2, “Macrocyclic lactone compounds and methods for their use” (Elixir Medical Corporation, priority 2006, dated 2018)

Key:
Assay type in all cases: cell-based
[1] = test system: human smooth muscle cells; assay: in vitro human smooth muscle cell culture testing, incorporated thymidine (proliferation); conditions: for % Proliferation After One Hr Exposure: 1 hr exposure; for % Proliferation After Three Hr Exposure: 3 hr exposure; for % Proliferation After Eight Hr Exposure: 8 hr exposure; for IC50: Homo sapiens
Protocol: The amounts of incorporated thymidine for samples of Compound AR of varying concentrations (0.005, 0.01, 0.05, 0.1, 0.5, and 1 μM) and of rapamycin of varying concentrations (0.0005, 0.001, 0.01, and 0.1 μM) were measured after exposure for different times of 1, 3 and 8 hours. The IC50 for Compound AR and rapamycin were approximately 0.05 and 0.01 μM, respectively, after smooth muscle cells were exposed to Compound AR and rapamycin for the shorter periods of 1 and 3 hours (as shown in Table 1 and FIG. 8). The IC50 of Compound AR and rapamycin was approximately 0.005 and 0.001 μM, respectively, after smooth muscle cells were exposure to Compound AR and rapamycin for 8 hours. The IC50 of Compound AR was approximately five times higher than that of rapamycin.
The amounts of incorporated thymidine for samples of 17, 18-29, 30-bis-epoxide macrocyclic lactone of varying concentrations (0.005, 0.01, 0.05, 0.1, 0.5, and 1 μM) and of Compound AR of varying concentrations (0.0005, 0.001, 0.01, and 0.1 μM) were measured after exposure for 8 hours. The IC50 of 17, 18-29, 30-bis-epoxide macrocyclic lactone and Compound AR was approximately 0.1 and 0.005 μM, respectively, after smooth muscle cells were exposed to 17, 18-29, 30-bis-epoxide macrocyclic lactone and Compound AR for 8 hours (FIG. 13). The IC50 of 17, 18-29, 30-bis-epoxide macrocyclic lactone was approximately 20 times higher than that of Compound AR.

[2] = test system: IL-6 released by activated macrophages; assay: cytokine inhibition in LPS-activated macrophages, ELISA: IL-6; conditions: 10 nM
Protocol: (§1) In cell culture studies, macrophages were activated to secrete cytokines such as 11-6, MMP-9, MCP-1 and IL-10 by treating the cells to E Coli lippopolysaccharide (LPS). Inhibition of these cytokines upon treatment of the activated macrophages with Compound AR and rapamycin with 10 nM concentration was tested using ELISA assay. The inhibition of pro-inflammatory and cell proliferation and migration inducing cytokines upon exposure to the macrocyclic lactone is presented in FIG. 12A. The inhibition of anti-inflammatory cytokine IL-10 upon exposure to macrocyclic lactone Compound AR and Sirolimus are presented in FIG. 12B.

[3] = test system: MMP-9 released by activated macrophages; assay: cytokine inhibition in LPS-activated macrophages, ELISA: MMP-9; conditions: 10 nM
Protocol: as §1

[4] = test system: MCP-1 released by activated macrophages; assay: cytokine inhibition in LPS-activated macrophages, ELISA: MCP-1; conditions: 10 nM
Protocol: as §1

[5] = test system: IL-10 released by activated macrophages; assay: cytokine inhibition in LPS-activated macrophages, ELISA: IL-10; conditions: 10 nM
Protocol: as §1

CO[C@@H]1C[C@H](C[C@@H](C)[C@@H]2CC(=O)[C@H](C)/C=C(\C)[C@@H](O)[C@@H](OC)C(=O)[C@H](C)C[C@H](C)/C=C/C=C/C=C(\C)C(O)C[C@@H]3CC[C@@H](C)C(O)(O3)C(=O)C(=O)N3CCCC[C@H]3C(=O)O2)CC[C@H]1O (stereo partly drawn) [Compound AR, 16-O-Demethyl Macrocyclic Lactone]
% Proliferation After One Hr Exposure ([1]; 0.005 micromolar): 84%
% Proliferation After Three Hr Exposure ([1]; 0.005 micromolar): 69%
% Proliferation After Eight Hr Exposure ([1]; 0.005 micromolar): 52%
% Proliferation After One Hr Exposure ([1]; 0.01 micromolar): 66%
% Proliferation After Three Hr Exposure ([1]; 0.01 micromolar): 56%
% Proliferation After Eight Hr Exposure ([1]; 0.01 micromolar): 38%
% Proliferation After One Hr Exposure ([1]; 0.05 micromolar): 54%
% Proliferation After Three Hr Exposure ([1]; 0.05 micromolar): 50%
% Proliferation After Eight Hr Exposure ([1]; 0.05 micromolar): 40%
% Proliferation After One Hr Exposure ([1]; 0.1 micromolar): 55%
% Proliferation After Three Hr Exposure ([1]; 0.1 micromolar): 52%
% Proliferation After Eight Hr Exposure ([1]; 0.1 micromolar): 36%
% Proliferation After One Hr Exposure ([1]; 0.5 micromolar): 57%
% Proliferation After Three Hr Exposure ([1]; 0.5 micromolar): 48%
% Proliferation After Eight Hr Exposure ([1]; 0.5 micromolar): 35%
IC50 ([1]; smooth muscle cells exposed for 8 hours): ~5 nM
IC50 ([1]; smooth muscle cells exposed for the shorter periods of 1 and 3 hours): ~50 nM
inhibition of release of IL-6 [2]: did not show and significant inhibition
production of MMP-9 [3]: significantly reduced the production
production of MCP-1 [4]: significantly reduced the production
production of anti-inflammatory cytokine IL-10 [5]: inhibit the production
